Experimental data from US12123881B2, “Rap1-Gtp, Rac1-GTP and FMS-like tyrosine kinase 3 ligand (FLT3-L) as biomarkers for early detection of sepsis” (UNM Rainforest Innovations, priority 2018, dated 2024).
Each block holds one molecule with its values, some of them ahead of it.

Experiments:
Haemophilus influenzae = experiment: Clinical course of Patient #10 under antibiotic treatment, tracked by GTPase assay; type: in vivo, human
Excerpt: FIG. 4 G-Trap data readout, showing: A. Histograms of Cyto-Plex™ beads coded with discrete levels of 700 nm fluorescence beads for target GTPases. B&C. Flow cytometry histograms associated with GTPase activity in cell lysates exposed to blood plasma drawn from Patient #10 shown in FIG. 4D on day 0 (pre-infection) and 11 (post infection). D. Quantitative analysis of GTP binding to cytoplex beads in cell lysates treated with plasma drawn from Patient #10: a person was admitted after being crushed by a car. On day 2 a bacterial infection was suspected, thus a sputum culture was ordered and the patient was treated with broad-spectrum antibiotics including vancomycin and piperacillin/tazobactam. […] Patient's blood pressure trended upwards. On day 7, sputum-culture sent on day #2 was determined to be positive for Haemophilus influenzae and antibiotics were changed to 3 days of ceftriaxone (days 7-9). […] The onset of infection was sensitively detected by an increase in GTP binding to Rap1 and Rac1. […] E. Quantitative analysis of GTPase activity induced by Patient #3 plasma (see FIG. 2A-C). F. Quantitative analysis of GTPase activity induced by Patient #13 plasma. […] G Quantitative analysis of GTPase activity induced by Patient #14 plasma; a person admitted with no injuries after a low-speed car collision. […]

ChemR23 (CMKLR1) = target: T1, ChemR23 (CMKLR1) (Homo sapiens, UniProt Q99788); settings: read-out: Kd, antagonist for ChemR23; cited from earlier work
T1 sequence (Q99788 1-373): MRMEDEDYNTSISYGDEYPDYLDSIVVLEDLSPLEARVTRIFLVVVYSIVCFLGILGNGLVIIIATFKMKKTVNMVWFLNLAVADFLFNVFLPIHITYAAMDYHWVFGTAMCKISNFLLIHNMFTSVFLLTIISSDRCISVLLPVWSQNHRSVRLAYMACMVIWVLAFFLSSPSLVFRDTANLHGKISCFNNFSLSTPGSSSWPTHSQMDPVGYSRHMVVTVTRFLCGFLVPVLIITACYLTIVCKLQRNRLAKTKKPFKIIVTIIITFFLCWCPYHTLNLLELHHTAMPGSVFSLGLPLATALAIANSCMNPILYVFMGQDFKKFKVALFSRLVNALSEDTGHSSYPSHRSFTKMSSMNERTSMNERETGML

ChemR23 = target: T2, ChemR23 (Homo sapiens, UniProt Q99788); experiment: G-Trap measurement of Rac1-GTP in cells challenged with Patient #10's plasma, with the ChemR23 antagonist; type: cell-based; settings: Patient #10 plasma
T2 construct: endogenous in cells
T2 sequence (Q99788 1-373): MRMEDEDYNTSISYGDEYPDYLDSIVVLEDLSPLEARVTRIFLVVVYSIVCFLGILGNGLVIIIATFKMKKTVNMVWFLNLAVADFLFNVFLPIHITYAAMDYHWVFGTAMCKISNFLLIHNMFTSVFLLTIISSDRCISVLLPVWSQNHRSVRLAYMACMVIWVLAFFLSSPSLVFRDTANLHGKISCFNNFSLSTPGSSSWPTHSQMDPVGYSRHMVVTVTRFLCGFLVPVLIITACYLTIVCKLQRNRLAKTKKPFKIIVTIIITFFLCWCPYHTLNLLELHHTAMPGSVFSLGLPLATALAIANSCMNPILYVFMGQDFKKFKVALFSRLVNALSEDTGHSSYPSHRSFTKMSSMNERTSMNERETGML
Excerpt: As shown in FIGS. 2-4, the inventors use flow cytometry multiplex beads that are functionalized with signaling effector molecules of target GTP bound small GTPases to determine changes in the concentration of active GTPases in the blood plasma of trauma patients before and after a clinically diagnosed infection (FIGS. 6&7). In this setting, the beads capture GTP-bound GTPases in lysates of cells that were challenged with plasma samples of study subjects and then quantitatively analyzed on a flow cytometer.^9
Pilot study Proteomic of Patient #10 and #14 plasma samples. Laser densitometer readings of duplicate patient plasma samples (#10, and #14) were computer analyzed for differential expression of proteins as previously described. Spot data showing significant differences between patient samples and controls were determined from adjusted p-values using FDR (and Bonferroni) analysis as previously described. Ten spots were selected for mass spectrometry analysis. The selection was based on the magnitude of change in expression as well as positive correlation to trends in GTPase activity. Preliminary validation assay were performed Spot #130-CPN for patient 10 and Spot #102; Angiotensinogen for Patient 14, because of their overt connection to GTPase activity profile and the immediate availability of assay tools to confirm their presence. The value proposition of the invention as a clinical decision support tool is illustrated in FIG. 6. FIG. 6A panels show the patient's vital signs, which are indeterminate. The illness history of Patient 10 is summarized in example Case #2 above caption and recapitulated in FIG. 6B. […] The rationale for testing CPN in secondary assays was based on the following. CPN is a metallocarboxypeptidase that regulates complement anaphylatoxins (C3a, C4a, and C5a). [2; 3; 4] For clarity, the expression of carboxypeptidase N (CPN) are superimposed over changes in GTP binding to Rac1 and Rap1 (FIG. 6C) for days 8-11. […] We reasoned that the plasma upregulation of CPN was due to Haemophilus influenzae associated LPS. […] [6; 7; 8] […] [5]

Rap1 [1] = experiment: LPS induced GTP loading of Rap1, GTPase activity measured in cell lysates; type: cell-based; settings: Vero E cells, exposed for 30 min
Excerpt: (§1) To establish a possible mechanistic link connecting GTPase activity, bacteria virulence factors and innate immune response to bacteria, we measured GTPase activity in cell lysates challenged cells with lipopolysaccharide (LPS) a Gram-negative bacterial endotoxin, which stimulates GTP binding to Rap1 in phagocytes and endothelial cells via CD14^18 (FIGS. 1A&B). […] Given the in vitro associations between Flt-3L and Rac1-GTP, we hypothesized that bacterial infection stimulates coordinate-increases in Flt-3L and Rap1-GTP. Furthermore, based on our data we hypothesized that LPS found in Gram negative bacteria, is likely to synergistically upregulate Rap1-GTP in tandem with Flt-3L which stimulates the upregulation of both Rap1-GTP and Rac-GTP. These findings were subsequently built-upon and extended to a retrospective study of longitudinal samples from trauma patients who developed hospital acquired infections. The human plasma samples were analyzed for 41 common inflammatory mediators using the 41plex HCYTMAG-60K-PX41 Cytokine kit, Human (Millipore, MA). In parallel, GTP loading of RhoA, Rac, and Rap1 was measured in cell lysates after their exposure to the plasma samples. […] We have previously disclosed a method of quantitative multiplex measurements of GTP binding to small GTPases. […]
(§2) C. […] GTPase activity was measured in cell lysates after the cells were exposed to LPS or Flt-3L for 30 min.

Rap1 [2] = experiment: Flt-3L induced GTP binding to Rap1, GTPase activity measured in cell lysates; type: cell-based; settings: endothelial cells, exposed for 30 min
Excerpt: as §1, §2

Rac1 = experiment: Flt-3L induced GTP binding to Rac1, GTPase activity measured in cell lysates; type: cell-based; settings: cells exposed to Flt-3L
Excerpt: as §1

Molecule: CO/N=C(\C(=O)N[C@@H]1C(=O)N2C(C(=O)O)=C(CSc3nc(=O)c(=O)[nH]n3C)CS[C@H]12)c1csc(N)n1 [Ceftriaxone, ceftriaxone]
treatment outcome indicated by GTPase assay (Haemophilus influenzae; Patient #10, 3 days of treatment (days 7-9), read on day 9): failure of treatment
clinical outcome (Haemophilus influenzae; Patient #10, restarted on day 14, lasted 7 days): patient recovery

inhibition of GTPase activity (ChemR23; day 6): 40%
inhibition of GTPase activity (ChemR23; day 11): 20%
inhibition of GTPase activity (ChemR23; day 12): 25%
Molecule: C[N+](C)(C)CCC(=O)c1cccc2ccccc12.[I-] [α-NETA]
Kd (ChemR23 (CMKLR1)): ~6 µM

Molecule: lipopolysaccharide [LPS]
GTP loading of Rap1 (Rap1 [1]): induced GTP loading of Rap1

B1: Flt-3L: hematopoietic four helical bundle cytokine, Fms-like tyrosine kinase-3 ligand (protein, UniProt P49771 27-235, looked up)
Fms-related tyrosine kinase 3 …: TQDCSFQHSPISSDFAVKIRELSDYLLQDYPVTVASNLQDEELCGGLWRLVLAQRWMERLKTVAGSKMQGLLERVNTEIHFVTKCAFQPPPSCLRFVQTNISRLLQETSEQLVALKPWITRQNFSRCLELQCQPDSSTLPPPWSPRPLEATAPTAPQPPLLLLLLLPVGLLLLAAAWCLHWQRTRRRTPRPGEQVPPVPSPQDLLLVEH
GTP binding to Rap1 (Rap1 [2]): induced GTP binding to Rap1
GTP binding to Rac1 (Rac1): elicited GTP binding to Rap1 and Rac1
